The results in this text go back to patent US20230265151A1, “GIP/GLP1 CO-AGONIST COMPOUNDS” (priority 2020, published 2023).

The target of assay [1] is T1, hGIPR (Homo sapiens, UniProt P48546).
T1 construct: expressed in transfected cells
T1 sequence (P48546 22-466): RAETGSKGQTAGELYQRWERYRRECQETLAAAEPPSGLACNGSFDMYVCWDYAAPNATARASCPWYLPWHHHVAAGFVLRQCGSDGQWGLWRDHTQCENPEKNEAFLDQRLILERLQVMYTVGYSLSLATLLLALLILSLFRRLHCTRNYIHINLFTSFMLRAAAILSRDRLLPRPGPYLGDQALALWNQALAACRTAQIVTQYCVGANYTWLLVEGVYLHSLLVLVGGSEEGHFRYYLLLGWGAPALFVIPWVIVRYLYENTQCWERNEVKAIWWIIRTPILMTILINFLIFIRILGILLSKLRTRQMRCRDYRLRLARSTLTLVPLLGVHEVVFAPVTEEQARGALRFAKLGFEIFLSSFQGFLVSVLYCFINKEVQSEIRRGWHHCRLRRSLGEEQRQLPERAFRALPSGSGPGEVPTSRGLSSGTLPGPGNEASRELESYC
Nature of the assay: Functional cAMP formation (HTRF) in HEK-293 clonal cells expressing hGIPR, 0.1% bovine casein, without or with 1.0% human serum albumin. The format is cell-based. Conditions: 37° C.; for Emax: percent of maximal response to GIP(1-42)NH2, read-out: hGIPR Emax, % ± SEM; for EC50: geometric mean, read-out: hGIPR EC50, nM (SEM, n). Summed up: (§1)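 Cells were stimulated with peptide for 30 min at 37° C, then lysed in buffer carrying cAMP-d2 and anti-cAMP Eu3+-cryptate for a competitive HTRF read after at least 60 min at room temperature. The 665/620 nm ratio was converted to nM cAMP against a standard curve.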
A general note: Changes in cAMP serve as a functional read-out for many G protein-coupled receptors.

Assay [2] concerns the target T2, hGCGR (Homo sapiens, UniProt P47871).
T2 construct: expressed in transfected cells
Nature of the assay: Functional cAMP formation (HTRF) in HEK-293 clonal cells expressing hGCGR, 0.1% bovine casein, without or with 1.0% human serum albumin. The format is cell-based. Conditions: read-out: hGCGR EC50, nM (SEM, n). Summed up: as §1

In assay [3] the target is T3, human GLP-1 receptor (hGLP-1R) (Homo sapiens, UniProt P43220).
T3 construct: expressed in transfected cells; crude membranes
Nature of the assay: [125I]-GLP-1 binding, SPA with membranes of HEK293 cells expressing hGLP-1R. The conditions noted are these: human GLP-1R; geometric mean (SEM, n); read-out: Binding Affinity Ki, nM (SEM, n) hGLP-1R.

The target in assay [4] is hGLP-1R (Homo sapiens, UniProt P43220). In words: Functional cAMP formation (HTRF) in HEK-293 clonal cells expressing hGLP-1R, 0.1% bovine casein, without or with 1.0% human serum albumin. More on the design: expressed in transfected cells. Conditions: 37° C.; for EC50: geometric mean, read-out: hGLP-1R EC50, nM (SEM, n); for Emax: percent of maximal response to GLP-1(7-36)NH2, read-out: hGLP-1R Emax, % ± SEM. The format is cell-based. The gist of the method:
as §1

In assay [5] the target is T4, human GIP receptor (hGIPR) (Homo sapiens, UniProt P48546).
T4 construct: expressed in transfected cells; crude membranes
T4 sequence (P48546 22-466): T1 sequence (P48546 22-466)
In words: [125I]-GIP binding, SPA with membranes of CHO cells expressing hGIPR. Conditions: human GIPR; geometric mean (SEM, n); read-out: Binding Affinity Ki, nM (SEM, n) hGIPR.

Setting [6] is: HEK293, 0.1% bovine casein and 1.0% human serum albumin.
Setting [7] is: cAMP, 0.1% bovine casein (no human serum albumin).
Setting [8] is: 0.1% bovine casein and 1.0% human serum albumin, 37° C., geometric mean.
[9] abbreviates: cAMP, 37° C., 0.1% bovine casein (no human serum albumin), geometric mean.
[10] abbreviates: 0.1% bovine casein and 1.0% human serum albumin.
The mark [11] stands for this setting: HEK293, cAMP, 0.1% bovine casein, arithmetic mean.

Each structure is given as a SMILES string. Read-outs that look alike come from different tables or passages of the source.

T2 sequence (P47871 26-477): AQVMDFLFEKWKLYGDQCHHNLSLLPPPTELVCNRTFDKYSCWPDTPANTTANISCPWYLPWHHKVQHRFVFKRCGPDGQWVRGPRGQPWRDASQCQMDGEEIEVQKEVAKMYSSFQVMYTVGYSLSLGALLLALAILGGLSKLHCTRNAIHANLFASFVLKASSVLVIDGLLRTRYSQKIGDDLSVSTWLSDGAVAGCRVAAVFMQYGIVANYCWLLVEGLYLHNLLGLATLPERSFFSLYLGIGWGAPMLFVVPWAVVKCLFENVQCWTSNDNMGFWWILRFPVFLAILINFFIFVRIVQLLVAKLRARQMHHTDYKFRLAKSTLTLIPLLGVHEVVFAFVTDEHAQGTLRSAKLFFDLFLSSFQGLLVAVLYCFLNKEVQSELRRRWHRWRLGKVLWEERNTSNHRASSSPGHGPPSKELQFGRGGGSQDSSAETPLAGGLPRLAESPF
T3 sequence (P43220 24-463): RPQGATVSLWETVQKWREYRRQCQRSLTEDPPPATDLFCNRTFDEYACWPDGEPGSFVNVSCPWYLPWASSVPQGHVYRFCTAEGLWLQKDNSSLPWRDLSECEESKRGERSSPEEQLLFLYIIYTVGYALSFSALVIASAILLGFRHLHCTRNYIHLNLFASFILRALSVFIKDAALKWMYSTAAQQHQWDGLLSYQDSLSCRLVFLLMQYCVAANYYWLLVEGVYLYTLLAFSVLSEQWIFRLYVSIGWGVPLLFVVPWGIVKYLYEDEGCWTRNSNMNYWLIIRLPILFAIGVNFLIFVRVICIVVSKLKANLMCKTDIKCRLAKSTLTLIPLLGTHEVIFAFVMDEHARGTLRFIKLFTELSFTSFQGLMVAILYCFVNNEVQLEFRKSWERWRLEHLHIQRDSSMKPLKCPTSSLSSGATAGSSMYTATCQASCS
Sequence of hGLP-1R (P43220 24-463): as above

Usually Emax stands for the greatest response seen or fitted, relative to the assay's reference. One may read the EC50 as the concentration giving half of the maximal effect. The term Ki denotes the dissociation constant of the complex between target and ligand, obtained from inhibition or displacement. As for `CCCCCCCCCCCC(=O)N[C@@H](CCC(=O)NCCOCCOCC(=O)NCCOCCOCC(=O)NCCCC[C@H](NC(=O)[C@H](CCCN)NC(=O)[C@H](CC(=O)O)NC(=O)[C@H](CC(C)C)NC(=O)[C@](C)(CC(C)C)NC(=O)[C@@H](NC(=O)C(C)(C)NC(=O)[C@H](CCCCNC(=O)COCCOCCNC(=O)COCCOCCNC(=O)CC[C@H](NC(=O)CCCCCCCCCCC)C(=O)O)NC(=O)[C@H](CC(=O)O)NC(=O)[C@H](CO)NC(=O)[C@@H](NC(=O)[C@](C)(Cc1ccccc1F)NC(=O)[C@@H](NC(=O)CNC(=O)[C@H](CCC(=O)O)NC(=O)C(C)(C)NC(=O)[C@@H](N)Cc1ccc(O)cc1)[C@@H](C)O)[C@@H](C)O)[C@@H](C)CC)C(=O)N[C@@H](C)C(=O)N[C@@H](CCC(N)=O)C(=O)NC(C)(C)C(=O)N[C@@H](CCC(=O)O)C(=O)N[C@@H](Cc1ccccc1)C(=O)N[C@H](C(=O)N[C@H](CCC(=O)O)C(=O)N[C@@](C)(Cc1ccc(O)cc1)C(=O)N[C@@H](CC(C)C)C(=O)N[C@H](C(=O)N[C@@H](CCC(=O)O)C(=O)NCC(=O)NCC(=O)N1CCC[C@H]1C(=O)N[C@@H](CO)C(=O)N[C@@H](CO)C(=O)NCC(=O)N[C@@H](C)C(=O)N1CCC[C@H]1C(=O)N1CCC[C@H]1C(=O)N1CCC[C@H]1C(=O)N[C@@H](CO)C(N)=O)[C@@H](C)CC)[C@@H](C)CC)C(=O)O` [Example 292], the Emax in assay [1] (setting [6]) is 88.4%. The EC50 is 0.0062 nM in assay [1] (setting [7]); over 9950 nM in assay [2] (setting [8]); over 9950 nM in assay [2] (setting [9]); 4.35 nM in assay [4] (setting [10]); 0.0758 nM in assay [4] (setting [7]). Further, the Ki in assay [3] came out at 0.289 nM; in assay [5], 0.0161 nM.

For the molecule `CC[C@H](C)[C@H](NC(=O)[C@H](CC(C)C)NC(=O)[C@](C)(Cc1ccc(O)cc1)NC(=O)[C@H](CCCCNC(=O)CCOCCOCCOCCNC(=O)CC[C@H](NC(=O)CCCCCCCCCCCCC(=O)O)C(=O)O)NC(=O)[C@@H](NC(=O)[C@H](Cc1ccccc1)NC(=O)[C@H](CCCN)NC(=O)C(C)(C)NC(=O)[C@H](CCC(N)=O)NC(=O)[C@H](C)NC(=O)[C@H](CCC(N)=O)NC(=O)[C@H](CCCN)NC(=O)[C@H](CC(=O)O)NC(=O)[C@H](CC(C)C)NC(=O)[C@](C)(CC(C)C)NC(=O)[C@@H](NC(=O)C(C)(C)NC(=O)[C@H](Cc1ccncc1)NC(=O)[C@H](CC(=O)O)NC(=O)[C@H](CO)NC(=O)[C@@H](NC(=O)[C@](C)(Cc1ccccc1F)NC(=O)[C@@H](NC(=O)CNC(=O)[C@H](CCC(=O)O)NC(=O)C(C)(C)NC(=O)[C@@H](N)Cc1ccc(O)cc1)[C@@H](C)O)[C@@H](C)O)[C@@H](C)CC)[C@@H](C)CC)C(=O)N[C@@H](CCCCNC(=O)CCOCCOCCOCCNC(=O)CC[C@H](NC(=O)CCCCCCCCCCCCC(=O)O)C(=O)O)C(=O)NCC(=O)NCC(=O)N1CCC[C@H]1C(=O)N[C@@H](CO)C(=O)N[C@@H](CO)C(=O)NCC(=O)N[C@@H](C)C(=O)N1CCC[C@H]1C(=O)N1CCC[C@H]1C(=O)N1CCC[C@H]1C(=O)N[C@@H](CO)C(N)=O` [Example 458], the Emax in assay [1] (HEK293, cAMP, 0.1% bovine casein and 1.0% human serum albumin) is 93.1%; in assay [4] (setting [11]) it was 111%. Further, the EC50 is 0.0121 nM in assay [1] (setting [7]); over 9950 nM in assay [2] (setting [9]); over 9950 nM in assay [2] (cAMP, 37° C., 0.1% bovine casein and 1.0% human serum albumin, geometric mean (SEM, n)); 0.179 nM in assay [4] (setting [7]). For the same molecule, the Ki in assay [3] amounted to 0.266 nM; in assay [5], 0.0232 nM.

For the molecule `CCCCCCCCCCCCCCCC(=O)N[C@@H](CCC(=O)NCCOCCOCC(=O)NCCCC[C@H](NC(=O)CNC(=O)CNC(=O)[C@H](CCC(=O)O)NC(=O)[C@@H](NC(=O)[C@H](CC(C)C)NC(=O)[C@](C)(Cc1ccc(O)cc1)NC(=O)[C@@H](CCC(=O)O)NC(=O)[C@@H](NC(=O)[C@H](Cc1ccccc1)NC(=O)[C@H](CCC(=O)O)NC(=O)C(C)(C)NC(=O)[C@H](CCC(N)=O)NC(=O)[C@H](C)NC(=O)[C@H](CCCCNC(=O)COCCOCCNC(=O)CC[C@H](NC(=O)CCCCCCCCCCCCCCC)C(=O)O)NC(=O)[C@H](CCCN)NC(=O)[C@H](CC(=O)O)NC(=O)[C@H](CC(C)C)NC(=O)[C@](C)(CC(C)C)NC(=O)[C@@H](NC(=O)[C@H](CO)NC(=O)[C@H](Cc1ccncc1)NC(=O)[C@H](CC(=O)O)NC(=O)[C@H](CO)NC(=O)[C@@H](NC(=O)[C@](C)(Cc1ccccc1F)NC(=O)[C@@H](NC(=O)CNC(=O)[C@H](CCC(=O)O)NC(=O)C(C)(C)NC(=O)[C@@H](N)Cc1ccc(O)cc1)[C@@H](C)O)[C@@H](C)O)[C@@H](C)CC)[C@@H](C)CC)[C@@H](C)CC)C(=O)N[C@@H](CO)C(=O)N[C@@H](CO)C(=O)NCC(=O)N[C@@H](C)C(=O)N1CCC[C@H]1C(=O)N1CCC[C@H]1C(=O)N1CCC[C@H]1C(=O)N[C@@H](CO)C(N)=O)C(=O)O` [Example 13], the EC50 in assay [1] (setting [10]) was 1.45 nM; in assay [2] (setting [8]), over 9950 nM; in assay [2] (cAMP, incubated at 37° C., 0.1% bovine casein (no human serum albumin), geometric mean) it was over 9950 nM; in assay [4] (setting [10]), 6.79 nM. Also, the figures for the inhibition constant (Ki) in assay [3] and in assay [5] were 0.691 nM and 0.0575 nM, respectively.

Regarding `CCCCCCCCCCCC(=O)N[C@@H](CCC(=O)NCCOCCOCC(=O)NCCOCCOCC(=O)NCCCC[C@H](NC(=O)[C@H](CO)NC(=O)[C@@H]1CCCN1C(=O)[C@@H]1CCCN1C(=O)[C@@H]1CCCN1C(=O)[C@H](C)NC(=O)CNC(=O)[C@H](CO)NC(=O)[C@H](CO)NC(=O)[C@@H]1CCCN1C(=O)CNC(=O)CNC(=O)[C@H](CCC(=O)O)NC(=O)[C@@H](NC(=O)[C@H](CC(C)C)NC(=O)[C@](C)(Cc1ccc(O)cc1)NC(=O)[C@@H](CCC(=O)O)NC(=O)[C@@H](NC(=O)[C@H](Cc1ccccc1)NC(=O)[C@H](CCC(=O)O)NC(=O)C(C)(C)NC(=O)[C@H](CCC(N)=O)NC(=O)[C@H](C)NC(=O)[C@H](CCCCNC(=O)COCCOCCNC(=O)COCCOCCNC(=O)CC[C@H](NC(=O)CCCCCCCCCCC)C(=O)O)NC(=O)[C@H](CCCN)NC(=O)[C@H](CC(=O)O)NC(=O)[C@H](CC(C)C)NC(=O)[C@](C)(CC(C)C)NC(=O)[C@@H](NC(=O)C(C)(C)NC(=O)[C@H](Cc1ccc(O)cc1)NC(=O)[C@H](CC(=O)O)NC(=O)[C@H](CO)NC(=O)[C@@H](NC(=O)[C@](C)(Cc1ccccc1F)NC(=O)[C@@H](NC(=O)CNC(=O)[C@H](CCC(=O)O)NC(=O)C(C)(C)NC(=O)[C@@H](N)Cc1ccc(O)cc1)[C@@H](C)O)[C@@H](C)O)[C@@H](C)CC)[C@@H](C)CC)[C@@H](C)CC)C(N)=O)C(=O)O` [Example 302], the 50% effective concentration (EC50) in assay [1] (setting [10]) is 0.453 nM; in assay [1] (setting [7]) it was 0.00916 nM; in assay [2] (setting [8]) it was over 9950 nM; in assay [2] (setting [9]), over 9950 nM; in assay [4] (setting [7]), 0.0917 nM. Also, the Emax in assay [1] (setting [6]) stood at 86.3%; in assay [1] (setting [11]) it was 100%; in assay [4] (setting [6]) it was 99.4%. The results for the Ki in assay [3] and in assay [5] were 0.137 nM and 0.0228 nM, respectively.
